In assay [1] the target is T1, CCR9 (Homo sapiens (Human), UniProt P51686). Briefly: FLIPR calcium flux assay using hCCR9 over expressed cells (Chem1-hCCR9), TECK stimulation. It counts as cell-based. The conditions noted are these: Chem1-hCCR9 overexpressing cells. The procedure: Biological Activity: FLIPR Assay Using hCCR9 Over Expressed Cells
A calcium flux assay was used to determine the ability of the compounds to interfere with the binding between CCR9 and its chemokine ligand (TECK) in Chem1-hCCR9 overexpressing cells. hCCR9 overexpressing cells were seeded (25,000 cells/well) into black Poly-D-Lysine coated clear bottom 96-well plates (BD Biosciences, Cat #356640) and incubated overnight at 37° C./5% CO2 in a humidified incubator. Media was aspirated and cells washed twice with 100 μL assay buffer (1×HBSS, 20 mM HEPES) containing 2.5 mM Probenecid. A 0.3× Fluo-4 NW calcium dye was prepared in assay buffer containing 5 mM Probenecid and stored in the dark. Each well was loaded with 100 μL of 0.3× Fluo-4 NW calcium dye and incubated at 37° C./5% CO2 for 60 minutes and then at room temperature for 30 minutes. A half-log serially diluted concentration response curve was prepared at a 3× final assay concentration for each compound (10 μM-0.1 nM final assay concentration) and 50 μL of the compound then transferred to the cells (150 μL final volume) for 60 minutes prior to stimulation (30 minutes at 37° C./5% CO2 and 30 minutes at room temperature). TECK was diluted to 4× its EC80 in assay buffer (containing 0.1% [w/v] bovine serum albumin [BSA]) and 50 μL dispensed through the fluorometric imaging plate reader (FLIPR) instrument to stimulate the cells (200 μL final volume). The increase in intracellular calcium levels was measured with the FLIPR instrument. The potency of the compound as a CCR9 antagonist was calculated as an IC50 using GraphPad Prism software (variable slope four parameter). The Ki of the compound was determined from the IC50 values using the following equation. IC50/1+(Agonist (TECK) conc. used in assay/EC50 of agonist (TECK) generated on day of experiment) Ki calculation: […]

In assay [2] the target is T1, CCR9. Kind of assay: FLIPR calcium flux assay using MOLT4 cells, TECK stimulation. In kind it is cell-based. As to conditions: MOLT4 cells (human T-cell line). On the procedure:
Biological Activity: FLIPR Assay Using MOLT4 Cells
A calcium flux assay was used to determine the ability of the compounds to interfere with the binding between CCR9 and its chemokine ligand (TECK) in MOLT4 cells (a human T-cell line). MOLT4 cells were seeded (100,000 cells/well) in corning cell culture plates (Cat #3603) in assay buffer (1×HBSS, 20 mM HEPES) containing 2.5 mM Probenecid. The plate was centrifuged at 1200 rpm for 3 minutes and incubated at 37° C./5% CO2 for 2 hours. A 0.3× Fluo-4 NW calcium dye was prepared in assay buffer containing 5 mM Probenecid and stored in the dark. Each well was loaded with 25 μl of 0.3× Fluo-4 NW calcium dye and incubated at 37° C./5% CO2 for 60 minutes and then at room temperature for 30 minutes. A half-log serially diluted concentration response curve was prepared at a 4× concentration for each (10 μM-0.1 nM final assay concentration) and 25 μL of the compound then transferred to the cells (100 μL final volume) for 60 minutes prior to stimulation (30 minutes at 37° C./5% CO2 and 30 minutes at room temperature). […] The increased in intracellular calcium levels was measured with the FLIPR instrument. The potency of the compound as CCR9 antagonist was calculated as an IC50 using GraphPad Prism software (variable slope four parameter). The Ki of the compound was determined from the IC50 values using the following equation. IC50/1+(Agonist (TECK) conc. used in assay/EC50 of agonist (TECK) generated on day of experiment) Ki calculation: […]
On the technique in general: Calcium assays in cells follow changes in intracellular calcium, usually with a dye or a luminescent sensor.

By Ki is commonly meant a measure of affinity in units of concentration, obtained from inhibition or displacement.

SMILES strings stand for the structures.

T1 sequence (P51686 whole entry): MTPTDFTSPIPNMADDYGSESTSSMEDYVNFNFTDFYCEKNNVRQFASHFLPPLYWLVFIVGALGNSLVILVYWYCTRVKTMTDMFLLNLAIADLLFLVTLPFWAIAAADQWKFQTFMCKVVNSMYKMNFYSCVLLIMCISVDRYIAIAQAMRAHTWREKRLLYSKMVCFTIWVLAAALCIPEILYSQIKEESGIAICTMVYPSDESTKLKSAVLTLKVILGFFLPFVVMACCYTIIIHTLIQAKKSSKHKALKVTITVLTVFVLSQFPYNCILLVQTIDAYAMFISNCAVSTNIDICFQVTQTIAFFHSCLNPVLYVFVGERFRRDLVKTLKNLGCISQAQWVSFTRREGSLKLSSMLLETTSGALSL

Consider `COc1cccc(N2C(=O)c3c(Cl)ccc(NS(=O)(=O)c4ccc(C(C)(C)C)cc4)c3C2=O)c1` [Compound 138], for which the Ki was found to be 138 nM on CCR9 [1] and 83 nM on CCR9 [2].
Consider `Cn1nccc1N1C(=O)c2c(Cl)ccc(NS(=O)(=O)c3ccc(C(C)(C)C)cc3)c2C1=O` [Compound 144], for which the values for the Ki on CCR9 [1] and at CCR9 [2] were 23 nM and 3 nM, respectively.
Turning to `Cn1ccc(N2C(=O)c3c(Cl)ccc(NS(=O)(=O)c4ccc(C(C)(C)C)cc4)c3C2=O)n1` [Compound 145], the results for the inhibitory constant (Ki) on CCR9 [1] and on CCR9 [2] were 73 nM and 129 nM, respectively.
Regarding `CC(C)(C)c1ccc(S(=O)(=O)Nc2ccc(Cl)c3c2C(=O)N(c2cn[nH]c2)C3=O)cc1` [Compound 148, 4-(tert-butyl)-N-(7-chloro-1,3-dioxo-2-(1H-pyrazol-4-yl)isoindolin-4-yl)benzenesulfonamide], the figures for the Ki on CCR9 [1] and at CCR9 [2] were 94 nM and 36 nM, respectively.
The like results for `O=C1c2c(Cl)ccc(NS(=O)(=O)c3ccc(C(F)(F)F)cc3)c2C(=O)N1c1cn[nH]c1` [Compound 149] were, in that order, 397 nM and 53 nM.
As for `Cn1cnc(N2C(=O)c3c(Cl)ccc(NS(=O)(=O)c4ccc(C(C)(C)C)cc4)c3C2=O)c1` [Compound 153, 4-(tert-butyl)-N-(7-chloro-2-(1-methyl-1H-imidazol-4-yl)-1,3-dioxoisoindolin-4-yl)benzenesulfonamide], the figures for the Ki at CCR9 [1] and on CCR9 [2] were 43 nM and 7 nM, respectively.
The like results for `COC(=O)c1sccc1N1C(=O)c2c(Cl)ccc(NS(=O)(=O)c3ccc(C(C)(C)C)cc3)c2C1=O` [Compound 155, methyl 3-(4-((4-(tert-butyl)phenyl)sulfonamido)-7-chloro-1,3-dioxoisoindolin-2-yl)thiophene-2-carboxylate] were, in that order, 135 nM and 44 nM.
Consider `Cc1ccc(NS(=O)(=O)c2ccc(C(C)(C)C)cc2)c2c1C(=O)N(Cc1cccnc1)C2=O` [Compound 160], for which the Ki on CCR9 [1] came to 776 nM; on CCR9 [2], 456 nM.
On to `Cc1ncccc1N1C(=O)c2c(Cl)ccc(NS(=O)(=O)c3ccc(C(C)(C)C)cc3)c2C1=O` [Compound 175, 4-(tert-butyl)-N-(7-chloro-2-(2-methylpyridin-3-yl)-1,3-dioxoisoindolin-4-yl)benzenesulfonamide], for which the Ki was determined as 12 nM on CCR9 [1] and 3 nM at CCR9 [2].
Take `Cc1c(N2C(=O)c3c(Cl)ccc(NS(=O)(=O)c4ccc(C(C)(C)C)cc4)c3C2=O)ccc[n+]1[O-]` [Compound 176, 3-(4-(4-(tert-butyl)phenylsulfonamido)-7-chloro-1,3-dioxoisoindolin-2-yl)-2-methylpyridine 1-oxide]: the Ki at CCR9 [1] came to 13 nM; on CCR9 [2], 6 nM.
Taken in the same sequence, the figures for `CC(C)(C)c1ccc(S(=O)(=O)Nc2ccc(Cl)c3c2C(=O)N(c2sccc2C#N)C3=O)cc1` [Compound 179] were 57 nM and 16 nM.
The like results for `Cc1ccc(N2C(=O)c3c(Cl)ccc(NS(=O)(=O)c4ccc(C(C)(C)C)cc4)c3C2=O)cn1` [Compound 182] were, in that order, 58 nM and 19 nM.
`COc1ncccc1N1C(=O)c2c(Cl)ccc(NS(=O)(=O)c3ccc(C(C)(C)C)cc3)c2C1=O` [Compound 183]: the Ki on CCR9 [1] and at CCR9 [2] was 3 nM in each case.
Consider `CC(C)(C)c1ccc(S(=O)(=O)Nc2ccc(Cl)c3c2C(=O)N(c2cnccn2)C3=O)cc1` [Compound 184], for which the Ki on CCR9 [1] was determined as 24 nM; at CCR9 [2] it was 16 nM.
Taken in the same sequence, the figures for `Cc1ccncc1N1C(=O)c2c(Cl)ccc(NS(=O)(=O)c3ccc(C(C)(C)C)cc3)c2C1=O` [Compound 185] were 23 nM and 7 nM.
Turning to `Cc1cc[n+]([O-])cc1N1C(=O)c2c(Cl)ccc(NS(=O)(=O)c3ccc(C(C)(C)C)cc3)c2C1=O` [Compound 188], the Ki on CCR9 [1] was 89 nM; at CCR9 [2], 15 nM.
`COc1cc[n+]([O-])cc1N1C(=O)c2c(Cl)ccc(NS(=O)(=O)c3ccc(C(C)(C)C)cc3)c2C1=O` [Compound 189]: the Ki on CCR9 [1] came out at 34 nM; on CCR9 [2], 8 nM.

The record behind these values is US9969687B2, “Compounds useful as CCR9 modulators” (Norgine B.V., priority 2013, dated 2018).
